The assay deals with L1210 leukemia ip in BDF1 mice, survival T/C. As to the kind of experiment: NCI In Vivo Anticancer Drug Screen. Data for tumor model L1210 Leukemia (intraperitoneal) in B6D2F1 (BDF1) mice. The note with it: endpoint: mean survival time, higher = longer survival. The gist of the method:
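Each compound was tested against a transplantable tumor grown in mice. The endpoint was survival, with treated animals benchmarked against vehicle controls as a simple ratio.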

[1] abbreviates: dose: 100.0 mg/kg/injection, schedule: Q04DX002 (ip), vehicle: Klucel (hydroxypropylcellulose) (HPC).
Where [2] appears, read: dose: 100.0 mg/kg/injection, schedule: Q01DX001 (ip), vehicle: saline.
The mark [3] stands for this setting: dose: 400.0 mg/kg/injection, schedule: Q01DX001 (ip), vehicle: saline.
The mark [4] stands for this setting: dose: 100.0 mg/kg/injection, schedule: Q04DX003 (ip), vehicle: saline.
Setting [5] is: dose: 100.0 mg/kg/injection, schedule: Q01DX001 (ip), vehicle: Klucel (hydroxypropylcellulose) (HPC).
[6] abbreviates: dose: 200.0 mg/kg/injection, schedule: Q01DX001 (ip), vehicle: Klucel (hydroxypropylcellulose) (HPC).
[7] abbreviates: dose: 400.0 mg/kg/injection, schedule: Q01DX001 (ip), vehicle: Klucel (hydroxypropylcellulose) (HPC).
The mark [8] stands for this setting: dose: 200.0 mg/kg/injection, schedule: Q01DX001 (ip), vehicle: saline.
[9] abbreviates: dose: 50.0 mg/kg/injection, schedule: Q04DX002 (ip), vehicle: saline.

Several values for one entry are separate records, joined by “and”; a condition that tells them apart may be missing. Equal entries are not always repeated. Inconclusive results and toxic doses are left out. Peptide text beside a SMILES is read from it.

The record followed here is PubChem BioAssay AID248 (DTP/NCI, 2004).

In the case of `NC(=O)C(CCCN=C(N)N)NC(=O)CNC(=O)C(N)CO` (stereo not drawn) (H-Ser-Gly-Arg-NH2; configuration not given here), the T/C by setting is: (dose: 25.0 mg/kg/injection, schedule: Q04DX002 (ip), vehicle: Klucel (hydroxypropylcellulose) (HPC)) 103 % of control; (dose: 50.0 mg/kg/injection, schedule: Q04DX002 (ip), vehicle: Klucel (hydroxypropylcellulose) (HPC)) 106 % of control; under setting [1], 100 % of control.

In the case of `CCN(CC)CCC(C=NCC(CCN(CC)CC)(c1cccc2ccccc12)C(C)C)(c1cccc2ccccc12)C(C)C` (stereo not drawn), the T/C was 108 % of control (dose: 1.5 mg/kg/injection, schedule: Q04DX002 (ip), vehicle: saline + alcohol); 102 % of control (dose: 3.1 mg/kg/injection, schedule: Q04DX002 (ip), vehicle: saline + alcohol); 94 % of control (dose: 6.25 mg/kg/injection, schedule: Q04DX002 (ip), vehicle: saline + alcohol); 92 % of control (dose: 12.5 mg/kg/injection, schedule: Q04DX002 (ip), vehicle: saline + alcohol); 92 % of control (dose: 25.0 mg/kg/injection, schedule: Q04DX002 (ip), vehicle: saline + alcohol); 92 % of control (dose: 25.0 mg/kg/injection, schedule: Q04DX002 (ip), vehicle: saline with Tween-80).

Turning to `CN1C2CC(=O)CC1C(O)C2` (stereo not drawn), the T/C is 103 % of control under setting [2] and 90 % of control under setting [3].

Turning to `C=CCOCC(O)CN(C)C1CCCCC1` (stereo not drawn), the T/C reads like this: (dose: 25.0 mg/kg/injection, schedule: Q01DX009 (ip), vehicle: saline) 97 % of control; (dose: 25.0 mg/kg/injection, schedule: Q04DX003 (ip), vehicle: saline) 106 % of control; (dose: 50.0 mg/kg/injection, schedule: Q01DX009 (ip), vehicle: saline) 98 % of control; (dose: 50.0 mg/kg/injection, schedule: Q04DX003 (ip), vehicle: saline) 103 % of control; (dose: 100.0 mg/kg/injection, schedule: Q01DX009 (ip), vehicle: saline) 95 % of control; under setting [4], 100 % of control and 104 % of control.

With `CC(C)NC(C)C`, the T/C is, setting by setting: under setting [5], 104 % of control; under setting [6], 101 % of control; under setting [7], 107 % of control.

Take `CC(C)(C)C1CCCC(NC(=O)N(CCCl)N=O)C1` (stereo not drawn): the T/C (dose: 6.0 mg/kg/injection, schedule: Q01DX001 (ip), vehicle: other) is 111 % of control; the T/C (dose: 12.0 mg/kg/injection, schedule: Q01DX001 (ip), vehicle: other) is 108 % of control; the T/C (dose: 46.0 mg/kg/injection, schedule: Q01DX001 (ip), vehicle: other) was 153 % of control; the T/C (dose: 93.0 mg/kg/injection, schedule: Q01DX001 (ip), vehicle: other) was 187 % of control; the T/C (dose: 187.0 mg/kg/injection, schedule: Q01DX001 (ip), vehicle: other) is 238 % of control; the T/C (dose: 250.0 mg/kg/injection, schedule: Q01DX001 (ip), vehicle: other) was 218 % of control. The T/C is, setting by setting: (dose: 375.0 mg/kg/injection, schedule: Q01DX001 (ip), vehicle: other) 164 % of control; (dose: 500.0 mg/kg/injection, schedule: Q01DX001 (ip), vehicle: other) 118 % of control.

For `Sc1cccc2c(S)cccc12`, the T/C is 100 % of control (dose: 50.0 mg/kg/injection, schedule: Q01DX001 (ip), vehicle: carboxymethylcellulose (CMC)); 97 % of control (dose: 100.0 mg/kg/injection, schedule: Q01DX001 (ip), vehicle: carboxymethylcellulose (CMC)); 103 % of control (dose: 200.0 mg/kg/injection, schedule: Q01DX001 (ip), vehicle: carboxymethylcellulose (CMC)); 100 % of control (dose: 400.0 mg/kg/injection, schedule: Q01DX001 (ip), vehicle: carboxymethylcellulose (CMC)).

In the case of `CCCCCCCCCCCSCCCCCCCCSCCCCCCCCCCC`, the T/C by setting is: under setting [5], 87 % of control; under setting [6], 92 % of control; under setting [7], 91 % of control.

On to `O=S(=O)(/C=C/c1ccccc1)Oc1ccc(-c2ccccc2)cc1`, for which the T/C runs as follows: (dose: 100.0 mg/kg/injection, schedule: Q01DX001 (ip), vehicle: acetone) 104 % of control; (dose: 100.0 mg/kg/injection, schedule: Q01DX009 (ip), vehicle: acetone) 90 % of control; (dose: 100.0 mg/kg/injection, schedule: Q04DX003 (ip), vehicle: acetone) 97 % of control; (dose: 200.0 mg/kg/injection, schedule: Q01DX001 (ip), vehicle: acetone) 98 % of control; (dose: 200.0 mg/kg/injection, schedule: Q04DX003 (ip), vehicle: acetone) 91 % of control; (dose: 400.0 mg/kg/injection, schedule: Q01DX001 (ip), vehicle: acetone) 98 % of control. The T/C reads like this: (dose: 400.0 mg/kg/injection, schedule: Q01DX009 (ip), vehicle: acetone) 90 % of control; (dose: 400.0 mg/kg/injection, schedule: Q04DX003 (ip), vehicle: acetone) 91 % of control.

As for `O=C(NCCF)NC1CCC(C(=O)O)CC1` (stereo not drawn), the T/C (dose: 50.0 mg/kg/injection, schedule: Q01DX001 (ip), vehicle: saline) was 111 % of control; the T/C under setting [2] is 107 % of control; the T/C under setting [8] is 96 % of control.

In the case of `NC(=O)CC(NC(=O)OCc1ccccc1)C(=O)O` (stereo not drawn), the T/C is 95 % of control (dose: 50.0 mg/kg/injection, schedule: Q01DX009 (ip), vehicle: Klucel (hydroxypropylcellulose) (HPC)); 95 % of control (dose: 100.0 mg/kg/injection, schedule: Q01DX009 (ip), vehicle: Klucel (hydroxypropylcellulose) (HPC)); 109 % of control (dose: 200.0 mg/kg/injection, schedule: Q01DX009 (ip), vehicle: Klucel (hydroxypropylcellulose) (HPC)).

Take `C/C=C/c1cc(C)cc(C)c1OC(C)CC` (stereo not drawn): the T/C (dose: 100.0 mg/kg/injection, schedule: Q04DX002 (ip), vehicle: saline with Tween-80) was 104 % of control and the T/C (dose: 200.0 mg/kg/injection, schedule: Q04DX002 (ip), vehicle: saline with Tween-80) was 93 % of control.

As for `C1=NC(c2ccccc2)=CN(C2CCCC2)C1(c1ccccc1)C1CCCC1` (stereo not drawn), the T/C is 105 % of control under setting [9]; 98 % of control under setting [1]; 108 % of control (dose: 100.0 mg/kg/injection, schedule: Q04DX002 (ip), vehicle: saline); 98 % of control (dose: 200.0 mg/kg/injection, schedule: Q04DX002 (ip), vehicle: Klucel (hydroxypropylcellulose) (HPC)); 108 % of control (dose: 200.0 mg/kg/injection, schedule: Q04DX002 (ip), vehicle: saline); 109 % of control (dose: 400.0 mg/kg/injection, schedule: Q04DX002 (ip), vehicle: Klucel (hydroxypropylcellulose) (HPC)).

Regarding `COC(=O)CCC(=O)/C=C1/Nc2ccccc2C1=O`, the T/C runs as follows: (dose: 100.0 mg/kg/injection, schedule: Q04DX003 (ip), vehicle: saline with Tween-80) 92 % of control; (dose: 200.0 mg/kg/injection, schedule: Q04DX003 (ip), vehicle: saline with Tween-80) 95 % of control; (dose: 400.0 mg/kg/injection, schedule: Q04DX003 (ip), vehicle: saline with Tween-80) 90 % of control.

Consider `NC(Cc1ccccc1)C(=O)CCl` (stereo not drawn), for which the T/C (dose: 25.0 mg/kg/injection, schedule: Q04DX002 (ip), vehicle: saline) is 105 % of control and the T/C under setting [9] was 108 % of control.

In the case of `O=C(Nc1ccc(Cl)c(Cl)c1)O/N=C\c1c(Cl)ccc([N+](=O)[O-])c1Cl`, the T/C under setting [2] was 102 % of control, the T/C under setting [8] was 107 % of control and the T/C under setting [3] is 102 % of control.

As for `C[n+]1cccc(S(=O)(=O)[O-])c1`, the T/C by setting is: under setting [4], 104 % of control; (dose: 200.0 mg/kg/injection, schedule: Q04DX003 (ip), vehicle: saline) 101 % of control; (dose: 400.0 mg/kg/injection, schedule: Q04DX003 (ip), vehicle: saline) 101 % of control.

In the case of `CN(C)C(=O)Nc1cccnc1`, the T/C is 97 % of control (dose: 75.0 mg/kg/injection, schedule: Q04DX003 (ip), vehicle: saline); 106 % of control (dose: 150.0 mg/kg/injection, schedule: Q04DX003 (ip), vehicle: saline); 101 % of control (dose: 300.0 mg/kg/injection, schedule: Q04DX003 (ip), vehicle: saline).

For the molecule `COC(=O)C1CC(O)CC(C(=O)OC)O1` (stereo not drawn), the T/C is 109 % of control (dose: 75.0 mg/kg/injection, schedule: Q01DX001 (ip), vehicle: saline) and 93 % of control (dose: 150.0 mg/kg/injection, schedule: Q01DX001 (ip), vehicle: saline).
